17 compounds from ChEMBL document CHEMBL3351479, “Novel acylureidoindolin-2-one derivatives as dual Aurora B/FLT3 inhibitors for the treatment of acute myeloid leukemia” (Eur J Med Chem, 2014) can be followed below.

pIC50: −log10 of the molar value.

For data set [1], the system named is THP-1. In words: Cytotoxicity against human THP1 cells assessed as cell viability at 1 uM after 48 hrs by MTT assay. It counts as functional. The settings on record: THP-1, 48 h, read-out: Activity.
The test system of data set [2] is MV4-11. In words: Cytotoxicity against human MV4-11 cells assessed as cell viability at 1 uM after 48 hrs by MTT assay. The following applies: MV4-11, 48 h, read-out: Activity. It counts as functional.
Data set [3] is described as follows: Cytotoxicity against human HL60 cells assessed as cell viability at 1 uM after 48 hrs by MTT assay. It counts as functional. The settings on record: HL-60, 48 h, read-out: Activity. (Tetrazolium dyes change colour on reduction, which living cells bring about.)
The subject of data set [4] is MOLM-13. In words: Cytotoxicity against human MOLM13 cells assessed as cell viability at 1 uM after 48 hrs by MTT assay. It counts as functional. The settings on record: MOLM-13, 48 h, read-out: Activity.
Data set [5] deals with Receptor-type tyrosine-protein kinase FLT3 (Homo sapiens) (UniProt P36888). In words: Inhibition of FLT3 (unknown origin) using EAIYAAPFAKKK substrate at 1 uM.
For data set [6], the system named is MOLM-13. In words: Cytotoxicity against human MOLM13 cells assessed as cell viability after 48 hrs by MTT assay. It counts as functional, cell-based. The settings on record: MOLM-13, 48 h.
The target in data set [7] is T1, Aurora kinase B (Homo sapiens, UniProt Q96GD4). In words: Inhibition of Aurora B (unknown origin) using HLRRASLG substrate at 1 uM.
T1 sequence (Q96GD4 whole entry): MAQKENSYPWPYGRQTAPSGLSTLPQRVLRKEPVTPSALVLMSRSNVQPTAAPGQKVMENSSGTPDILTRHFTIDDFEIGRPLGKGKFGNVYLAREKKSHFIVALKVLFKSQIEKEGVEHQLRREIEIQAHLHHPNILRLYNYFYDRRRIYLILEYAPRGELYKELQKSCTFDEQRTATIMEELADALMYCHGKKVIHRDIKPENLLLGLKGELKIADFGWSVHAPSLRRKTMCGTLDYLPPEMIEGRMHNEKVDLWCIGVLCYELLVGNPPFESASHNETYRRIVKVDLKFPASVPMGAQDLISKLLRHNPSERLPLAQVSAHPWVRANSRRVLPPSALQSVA
Data set [8] deals with THP-1. In words: Cytotoxicity against human THP1 cells assessed as cell viability after 48 hrs by MTT assay. It counts as functional, cell-based.
In data set [9] the test system is MV4-11. In words: Cytotoxicity against human MV4-11 cells assessed as cell viability after 48 hrs by MTT assay. It counts as functional, cell-based.
Data set [10] can be described thus: Cytotoxicity against human HL60 cells assessed as cell viability after 48 hrs by MTT assay. It counts as functional, cell-based. The settings on record: HL-60, 48 h.
Data set [11] deals with T1, Aurora kinase B. In words: Inhibition of Aurora B (unknown origin) using HLRRASLG substrate.
Data set [12] has as its target T2, Receptor-type tyrosine-protein kinase FLT3 (Homo sapiens, UniProt P36888).
T2 sequence (P36888 whole entry): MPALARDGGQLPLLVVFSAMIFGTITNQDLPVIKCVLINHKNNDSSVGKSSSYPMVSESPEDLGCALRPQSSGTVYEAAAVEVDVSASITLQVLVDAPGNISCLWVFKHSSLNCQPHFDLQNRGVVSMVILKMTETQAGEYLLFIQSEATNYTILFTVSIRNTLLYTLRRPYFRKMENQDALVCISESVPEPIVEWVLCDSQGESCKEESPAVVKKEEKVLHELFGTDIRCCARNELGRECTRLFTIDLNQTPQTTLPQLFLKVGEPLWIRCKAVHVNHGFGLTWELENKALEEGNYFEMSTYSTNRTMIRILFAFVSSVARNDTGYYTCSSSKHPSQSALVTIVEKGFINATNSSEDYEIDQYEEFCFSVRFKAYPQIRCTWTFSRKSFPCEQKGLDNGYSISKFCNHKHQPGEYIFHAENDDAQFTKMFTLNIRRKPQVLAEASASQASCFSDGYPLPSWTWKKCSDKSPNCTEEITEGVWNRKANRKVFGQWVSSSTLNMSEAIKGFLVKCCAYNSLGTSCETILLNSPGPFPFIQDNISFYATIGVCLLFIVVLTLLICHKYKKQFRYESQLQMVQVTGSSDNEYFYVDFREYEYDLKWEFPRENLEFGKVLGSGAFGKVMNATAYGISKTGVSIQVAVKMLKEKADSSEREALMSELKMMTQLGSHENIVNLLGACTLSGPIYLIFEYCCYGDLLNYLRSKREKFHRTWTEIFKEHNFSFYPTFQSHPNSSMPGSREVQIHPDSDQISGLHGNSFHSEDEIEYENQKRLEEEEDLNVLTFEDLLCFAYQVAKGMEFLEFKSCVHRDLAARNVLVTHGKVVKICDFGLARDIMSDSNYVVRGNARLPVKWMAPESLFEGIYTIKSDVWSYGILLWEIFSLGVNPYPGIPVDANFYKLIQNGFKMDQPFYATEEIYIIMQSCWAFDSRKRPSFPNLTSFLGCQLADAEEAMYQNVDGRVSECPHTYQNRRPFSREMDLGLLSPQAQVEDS
In words: Inhibition of FLT3 (unknown origin) using EAIYAAPFAKKK substrate.

The nature of data set [13]: Permeability coefficient of the compound at pH 7.4 by PAMPA-GIT assay. The following applies: read-out: Peff. It counts as ADME.
A short description of data set [14]: Ratio of solubility in PBS to solubility in DMSO. It counts as physicochemical.

For the compound `COc1ccc(C(=O)NC(=O)Nc2ccc3c(c2)NC(=O)/C3=C/c2ccncc2)cc1`, the viability at 1 µM in data set [1] is 96%; in data set [2], 72%; in [3] it was 95%; in data set [4], 65%. Further, the inhibition (commonly the percentage by which the read-out fell short of the control) in data set [5] came out at 4%; in [7], 7%. Besides, the pIC50 (as a rule, the negative decadic logarithm of the IC50, by convention in mol/L) in [6] is less than 6.30; in data set [8] (Homo sapiens, THP-1, 48 h) it was less than 6.30; in data set [9] (Homo sapiens, MV4-11, 48 h), less than 6.30; in [10], less than 6.30.
`COc1ccc(C(=O)NC(=O)Nc2ccc3c(c2)NC(=O)/C3=C/c2ccco2)cc1`: the viability at 1 µM in data set [1] was 74%; in data set [2] it was 70%; in data set [3], 64%; in data set [4], 62%. Moreover, the inhibition turned out to be 15% in [5] and 44% in [7]. In addition, the pIC50 in data set [6] is less than 6.30; in [8] (Homo sapiens, THP-1, 48 h), less than 6.30; in data set [9] (Homo sapiens, MV4-11, 48 h) it was less than 6.30; in data set [10], less than 6.30.
Consider `CCOC(=O)c1c(C)[nH]c(/C=C2\C(=O)Nc3cc(NC(=O)NC(=O)c4ccc(OC)cc4F)ccc32)c1C`, for which the pIC50 in [11] was less than 6.00; in data set [6], 8.01; in data set [12] it was less than 6.00; in data set [8] (Homo sapiens, THP-1, 48 h), 7.13; in data set [9] (Homo sapiens, MV4-11, 48 h), 7.95; in [10], 7.89.
As for `COc1ccc(C(=O)NC(=O)Nc2ccc3c(c2)NC(=O)/C3=C\c2[nH]c(C)c(C(=O)O)c2C)cc1`, the Papp in data set [13] is 0.23 ×10⁻⁶ cm/s. The pIC50 was 8.05 in data set [6]; 7.11 in data set [8] (Homo sapiens, THP-1, 48 h); 7.92 in [9] (Homo sapiens, MV4-11, 48 h); 7.80 in [10]. The Ratio in [14] was determined as 0.32.
As to `COc1ccc(C(=O)NC(=O)Nc2cc3c(cc2F)/C(=C/c2[nH]c(C)c(C(=O)O)c2C)C(=O)N3)cc1`, the Papp in data set [13] was 2.46 ×10⁻⁶ cm/s. The pIC50 in [6] was 7.60; in data set [8] (Homo sapiens, THP-1, 48 h), 7.09; in [9] (Homo sapiens, MV4-11, 48 h), 7.46; in data set [10], 7.49. Moreover, in data set [14], the Ratio worked out at 0.58.
Regarding `COc1ccc(C(=O)NC(=O)Nc2ccc3c(c2)NC(=O)/C3=C\c2[nH]c(C)c(C(=O)O)c2C)c(F)c1`, the Papp in data set [13] is 2.49 ×10⁻⁶ cm/s. Also, the pIC50 was 8.28 in data set [6]; 7.10 in data set [8] (Homo sapiens, THP-1, 48 h); 8.28 in [9] (Homo sapiens, MV4-11, 48 h); 8.19 in data set [10]. In [14], the Ratio is reported as 0.58.
For the compound `COc1ccc(C(=O)NC(=O)Nc2ccc3c(c2)NC(=O)/C3=C/c2ccccc2)cc1`, the viability at 1 µM in data set [1] was determined as 76%; in data set [2], 64%; in data set [3], 64%; in [4], 73%. Moreover, the inhibition in [5] is 34%; in [7] it was 61%. Moreover, the pIC50 is less than 6.30 in data set [6]; less than 6.30 in data set [8] (Homo sapiens, THP-1, 48 h); less than 6.30 in data set [9] (Homo sapiens, MV4-11, 48 h); less than 6.30 in [10].
Regarding `COc1ccc(C(=O)NC(=O)Nc2ccc3c(c2)NC(=O)/C3=C/c2cccs2)cc1`, the pIC50 in data set [11] is 7.67; in data set [6] it was less than 6.30; in data set [12], less than 6.00; in data set [8] (Homo sapiens, THP-1, 48 h) it was 6.43; in data set [9] (Homo sapiens, MV4-11, 48 h), 6.53; in data set [10], 6.52.
Turning to `COc1ccc(C(=O)NC(=O)Nc2ccc3c(c2)NC(=O)/C3=C/c2cccc(C(=O)O)c2)cc1`, the viability at 1 µM in data set [1] was 71%; in data set [2] it was 57%; in [3], 59%; in data set [4], 53%. Moreover, the results for the inhibition in data set [5] and in data set [7] were 21% and 73%, respectively. Also, the pIC50 in data set [6] was 6.54; in data set [8] (Homo sapiens, THP-1, 48 h), less than 6.30; in data set [9] (Homo sapiens, MV4-11, 48 h), less than 6.30; in data set [10] it was less than 6.30.
For `COc1ccc(C(=O)NC(=O)Nc2ccc3c(c2)NC(=O)/C3=C/c2ccc(Cl)c(Cl)c2)cc1`, the viability at 1 µM amounted to 68% in data set [1], 71% in [2], 63% in data set [3] and 69% in [4]. The values for the inhibition in [5] and in data set [7] were 19% and 9%, respectively. Besides, the pIC50 was less than 6.30 in [6]; less than 6.30 in data set [8] (Homo sapiens, THP-1, 48 h); less than 6.30 in data set [9] (Homo sapiens, MV4-11, 48 h); less than 6.30 in data set [10].
As to `COc1ccc(C(=O)NC(=O)Nc2ccc3c(c2)NC(=O)/C3=C\c2ccc(C(=O)O)[nH]2)cc1`, the viability at 1 µM in data set [1] was determined as 65%; in data set [2] it was 62%; in data set [3] it was 65%; in [4], 55%. For the same compound, the pIC50 in data set [11] is less than 6.00; in data set [6], less than 6.30; in data set [12], less than 6.00; in [8] (Homo sapiens, THP-1, 48 h), less than 6.30; in [9] (Homo sapiens, MV4-11, 48 h), less than 6.30; in data set [10] it was less than 6.30.
With `COc1ccc(C(=O)NC(=O)Nc2ccc3c(c2)NC(=O)/C3=C/c2ccc(Cl)cc2)cc1`, the viability at 1 µM is 83% in data set [1], 97% in [2], 77% in data set [3] and 101% in data set [4]. The inhibition in data set [5] came out at 6%; in [7] it was 13%. In addition, the pIC50 in [6] is less than 6.30; in [8] (Homo sapiens, THP-1, 48 h), less than 6.30; in data set [9] (Homo sapiens, MV4-11, 48 h), less than 6.30; in [10], less than 6.30.
For the compound `COc1ccc(C(=O)NC(=O)Nc2ccc3c(c2)NC(=O)/C3=C/c2ccccn2)cc1`, the viability at 1 µM worked out at 85% in data set [1], 60% in data set [2], 80% in data set [3] and 62% in data set [4]. Moreover, the negative logarithm of the IC50 (pIC50) is less than 6.30 in [6]; less than 6.00 in data set [12]; less than 6.30 in [8] (Homo sapiens, THP-1, 48 h); less than 6.30 in [9] (Homo sapiens, MV4-11, 48 h); less than 6.30 in data set [10]. Also, the inhibition in [7] was 29%.
In the case of `COc1ccc(C(=O)NC(=O)Nc2ccc3c(c2)NC(=O)/C3=C\c2[nH]c(C)c(C(=O)NCCN3CCCC3)c2C)c(F)c1.CS(=O)(=O)O`, the Ratio in data set [14] turned out to be 0.97. The pIC50 in data set [8] (thp-1) is 7.49; in data set [9] (mv4-11), 8.70.
Take `COc1ccc(C(=O)NC(=O)Nc2ccc3c(c2)NC(=O)/C3=C\c2[nH]c(C)c(CCC(=O)O)c2C)cc1`: the pIC50 is 8.28 in data set [6]; 7.28 in data set [8] (Homo sapiens, THP-1, 48 h); 8.28 in data set [9] (Homo sapiens, MV4-11, 48 h); 8.19 in data set [10]. Also, in [14], the Ratio came to 0.57.
As for `COc1ccc(C(=O)NC(=O)Nc2ccc3c(c2)NC(=O)/C3=C/c2ccc(O)cc2)cc1`, the viability at 1 µM in [1] was determined as 54%. The pIC50 was 6.45 in data set [6]; less than 6.00 in [12]; less than 6.30 in data set [8] (Homo sapiens, THP-1, 48 h); 6.42 in data set [9] (Homo sapiens, MV4-11, 48 h); 6.31 in [10]. In addition, the inhibition in data set [7] worked out at 63%.
On to `COc1ccc(C(=O)NC(=O)Nc2ccc3c(c2)NC(=O)/C3=C\c2[nH]c(C)c(-c3ccccc3)c2C)cc1`, for which the viability at 1 µM in [1] was determined as 73%; in data set [2], 51%; in [3], 65%; in data set [4] it was 51%. Moreover, the pIC50 in data set [11] was less than 6.00; in [6] it was less than 6.30; in data set [8] (Homo sapiens, THP-1, 48 h), less than 6.30; in [9] (Homo sapiens, MV4-11, 48 h), less than 6.30; in data set [10], less than 6.30.
